Assay results taken from patent US9937250B2, “Immunogenic tumor associated stromal cell antigen peptides and methods of their use” (University of Pittsburgh—Of the Commonwealth System of …, priority 2011, dated 2018).

Tested on: CD8+ splenocytes
Assay: Tc1 response to DC.IL12/peptide vaccination (splenic CD8+ T cell IFN-γ ELISA against peptide-pulsed T2 cells)
Format: in vivo, HHD mice
Conditions: DC.IL12 pulsed with peptide(s), two s.c. vaccinations; versus DC only
From the text: FIGS. 9A-9B show a series of graphs illustrating induction of specific/protective CD8^+ T cells reactive against TASA as a consequence of DC/peptide-based vaccination. In FIG. 9A, HHD mice (five animals/cohort) were vaccinated twice (d-14, d-7) subcutaneously with PBS or with isologous DC.IL12 pulsed with PBS or synthetic peptides (Table 6) derived from the indicated TASA. In cases where more than 1 peptide was identified for a given target antigen, an equimolar pool of the indicated peptides (each 10 μM) was pulsed onto DC.IL12 and used for vaccination in the relevant cohort. One week after the second immunization, spleens were harvested and splenic CD8^+ T cells isolated using MACS-beads (Miltenyi). T cells were stimulated in vitro for 48 h using the HLA-A2^+ T2 cell line pulsed with relevant TASA vs. irrelevant HIV-nef190-198 ([…]; ref. 24) peptides. Cell-free supernatants were then recovered and IFN-γ levels by ELISA. Data are reported as mean+/−SD for triplicate ELISA determinations, and are representative of 3 independent experiments performed. *p<0.05 vs. HIV-nef control peptide responses. In FIG. 9B, HHD mice were vaccinated twice (days −14 and −7; right flank) subcutaneously with PBS or with isologous DC.IL12 pulsed with PBS or synthetic TASA peptides as indicated in FIG. 1A. In cases where more than 1 peptide is identified for a given target antigen, an equimolar pool of the indicated peptides (each 10 μM) was pulsed onto DC.IL12 and used for vaccination in the relevant cohort. One week after the booster vaccine (i.e. day zero), animals were challenged subcutaneously on their left flank with 2×10^6 MC38 colon carcinoma cells. Tumor growth was then monitored every 3-4 days through day 24. All data represent mean tumor area (in mm^2)+/−SD determined from 5 mice/cohort, and are representative of three independent experiments performed. *p<0.05 versus DC only on the indicated days.
Vaccine Experiments. For prophylactic experiments, HHD mice were immunized subcutaneously on the right flank with 100 μl PBS or PBS containing 10^6 syngenic DC.IL12 cells that had been untreated or pre-pulsed for 4 h at 37° C. with 10 μM synthetic peptide(s). Immunizations occurred on days −14 and −7, with mice subsequently receiving injections of MC38 (2×10^6) tumor cells in the left flank on d0. In all cases, treatment groups contained 5 mice per cohort. For analysis of tumor cellular composition in repeat experiments, MC38 tumors were isolated by surgical resection 10 days after tumor inoculation and prepared for fluorescence imaging, as described below. […] Mice were then untreated or treated with control, syngenic DC.IL12 or DC.IL12 (10^6 cells injected subcutaneously in the left flank on days 7 and 14) pulsed with synthetic TBVA peptides. In some assays, as indicated, in vivo antibody depletions (on days 6, 13 and 20 post-tumor inoculation to assess early involvement or on days 60 and 67 or 180 and 187 to assess late involvement) of protective CD4^+ T cells or CD8^+ T cells were performed and monitored as previously described (Zhao et al., Mol Ther., 19:805-814, 2011). In all cases, tumor size (area) was monitored every 3-4 days and is reported as mean+/−SD in mm^2.
Evaluation of Specific CD8^+ T Cell Responses in HHD Mice. MACS (Miltenyi Biotec) CD8^+ splenocytes were harvested (from 3 mice/group) 7 days after the second round of DC-based vaccination (i.e. day 21 after tumor inoculation) and analyzed for reactivity against unpulsed T2 cells, TBVA peptide-pulsed T2 cells, or day 19 (flow-sorted) B16-derived PDGFRβ^+CD31^negH-2K^b(neg) pericytes or PDGFRβ^negCD31^+H-2K^b(neg) VEC isolated as previously described (Zhao et al., Mol Ther., 19:805-814, 2011). Where indicated, 10 μg of anti-HLA-A2 mAb BB7.2 or control anti-class II mAb L243 (both from ATCC, Manassas, Va.) were added to replicate co-culture wells. After 48 h, supernatants were analyzed for mIFN-γ content by specific ELISA (BD-Biosciences; lower detection limit=31.3 pg/ml). […]

In the case of LAALPHSCL (listed as Homo sapiens), the “Tc1 Response to Peptide Vaccine (HHD)” value was “+ (+, p < 0.05 versus DC only)”.
